Here are results for 31 compounds from US11008317B2, “Triazolopyridine inhibitors of myeloperoxidase and/or EPX” (priority 2016, dated 2021).

Assay [1] deals with T1, myeloperoxidase (Homo sapiens, UniProt P05164).
T1 sequence (P05164 49-745): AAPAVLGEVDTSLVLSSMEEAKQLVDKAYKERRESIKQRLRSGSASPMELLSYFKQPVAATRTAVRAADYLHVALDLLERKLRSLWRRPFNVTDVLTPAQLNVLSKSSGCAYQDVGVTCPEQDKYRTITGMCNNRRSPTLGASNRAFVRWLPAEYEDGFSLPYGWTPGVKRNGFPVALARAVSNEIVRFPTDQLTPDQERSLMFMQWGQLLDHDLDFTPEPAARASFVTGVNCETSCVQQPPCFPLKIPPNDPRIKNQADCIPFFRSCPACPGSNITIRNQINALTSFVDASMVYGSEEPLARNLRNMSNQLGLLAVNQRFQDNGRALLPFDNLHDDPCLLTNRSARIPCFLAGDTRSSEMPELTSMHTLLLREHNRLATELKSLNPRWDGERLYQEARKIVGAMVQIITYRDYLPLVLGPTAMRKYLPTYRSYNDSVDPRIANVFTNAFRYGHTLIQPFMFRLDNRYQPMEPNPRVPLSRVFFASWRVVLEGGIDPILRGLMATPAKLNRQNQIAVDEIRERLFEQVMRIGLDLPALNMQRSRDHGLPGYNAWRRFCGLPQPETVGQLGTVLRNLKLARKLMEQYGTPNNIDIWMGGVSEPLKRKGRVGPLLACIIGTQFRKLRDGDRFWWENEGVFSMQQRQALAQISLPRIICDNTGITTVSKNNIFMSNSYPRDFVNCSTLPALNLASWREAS
As to the kind of experiment: MPO Chlorination Assay (APF Assay). It counts as biochemical. The following applies: potency range class.

The target in assay [2] is T1, myeloperoxidase. As to the kind of experiment: MPO Peroxidation Assay (Amplex Red Assay). It counts as biochemical. Conditions: potency range class.
Setting [3] is: Amplex Red Assay IC50 value (μM).
[4] abbreviates: read-out: Amplex Red Assay IC50 value.

By IC50 is commonly meant the concentration at which inhibition is half-maximal. Regarding `Nc1cc(C(CCNC2(c3ccccc3)CCCCC2)c2ccccc2)c2nn[nH]c2n1` (centres unmarked) [Example 128, 7-{1-phenyl-3-[(1-phenylcyclohexyl)amino]propyl}-3H-[1,2,3]triazolo [4,5-b]pyridin-5-amine], the IC50 in assay [1] (APF Assay IC50 value (μM)) was in the range of 0.001 to 0.1 µM; in assay [2] (setting [3]), 1 to 10 µM. Regarding `CN(C)C(=O)CN(CC[C@H](c1ccccc1)c1cc(N)nc2[nH]nnc12)C12CCC(c3ccccc3)(CC1)CC2` [Example 192, 2-{[(3R)-3-{5-amino-3H-[1,2,3]triazolo [4,5-b]pyridin-7-yl}-3-phenylpropyl]({4-phenylbicyclo[2.2.2]octan-1-yl})amino}-N,N-dimethylacetamide], the concentration for half-maximal inhibition (IC50) in assay [1] (read-out: APF Assay IC50 value) was 0.001 to 0.1 µM; in assay [2] (setting [4]), 1 to 10 µM. For `Nc1cc([C@H](CCNC23CCC(c4ccccc4)(CC2)C(O)C3)c2ccccc2)c2nn[nH]c2n1` (stereo partly drawn) [Example 154, 4-{[(3R)-3-{5-amino-3H-[1,2,3]triazolo [4,5-b]pyridin-7-yl}-3-phenylpropyl]amino}-1-phenylbicyclo [2.2.2]octan-2-ol], in that order: 0.001 to 0.1 µM and 0.001 to 0.1 µM. The corresponding values for `N#Cc1cccc(C(CCNC23CCC(c4ccccc4)(CC2)CC3)c2cc(N)nc3[nH]nnc23)c1` (centres unmarked) [Example 171, 7-(1-(3-cyanophenyl)-3-((4-phenylbicyclo[2.2.2]octan-1-yl)amino)propyl)-3H-[1,2,3]triazolo[4,5-b]pyridin-5-amine] are 0.001 to 0.1 µM and 0.001 to 0.1 µM. Consider `Nc1cc(C(CCO[C@H]2CC[C@H](c3ccccc3)CC2)c2ccccc2)c2nn[nH]c2n1` (some centres unmarked) [Example 223, 7-(1-phenyl-3-((4-phenylcyclohexyl)oxy)propyl)-3H-[1,2,3]triazolo[4,5-b]pyridin-5-amine], for which the half-inhibitory concentration (IC50) in assay [1] (read-out: APF Assay IC50 value) and in assay [2] (setting [4]) was 0.101 to 0.999 µM throughout. Consider `Nc1cc(C(CCNC2CCC(c3cccc(Cl)c3)CC2)c2ccccc2)c2nn[nH]c2n1` (centres unmarked) [Example 105, 7-(3-{[4-(3-chlorophenyl)cyclohexyl]amino}-1-phenylpropyl)-3H-[1,2,3]triazolo[4,5-b]pyridin-5-amine], for which the results for the IC50 in assay [1] (read-out: APF Assay IC50 value) and in assay [2] (setting [4]) were 0.001 to 0.1 µM and 1 to 10 µM, respectively. For `Nc1cc(C(CCCN2CCCC(c3ccccc3)CC2)c2ccccc2)c2nn[nH]c2n1` (centres unmarked) [Example 212, 7-[1-phenyl-4-(4-phenylazepan-1-yl)butyl]-3H-[1,2,3] triazolo[4,5-b] pyridin-5-amine], in that order: 0.001 to 0.1 µM and 0.101 to 0.999 µM. The corresponding values for `NC(=O)c1ccc(-c2cccc3[nH]c(C[C@H](c4ccccc4)c4cc(N)nc5[nH]nnc45)nc23)cc1` [Example 249, (R)-4-(2-(2-(5-amino-3H-[1,2,3]triazolo [4,5-b]pyridin-7-yl)-2-phenylethyl)-1H-benzo[d]imidazol-4-yl)benzamide] are 0.001 to 0.1 µM and 0.101 to 0.999 µM.

Consider `NCc1cccc(C(CCNC23CCC(c4ccccc4)(CC2)CC3)c2cc(N)nc3[nH]nnc23)c1` (centres unmarked) [Example 172, 7-(1-(3-(aminomethyl)phenyl)-3-((4-phenylbicyclo[2.2.2]octan-1-yl)amino)propyl)-3H-[1,2,3]triazolo[4,5-b]pyridin-5-amine], for which the half-inhibitory concentration (IC50) lay in the range of 0.001 to 0.1 µM in assay [1] (read-out: APF Assay IC50 value) and 0.101 to 0.999 µM in assay [2] (setting [4]). On to `Nc1cc(C(CCN[C@@H]2CCc3ccc(C(F)(F)F)cc32)c2ccccc2)c2nn[nH]c2n1` (stereo partly drawn) [Example 124, 7-(1-phenyl-3-{[(1R)-6-(trifluoromethyl)-2,3-dihydro-1H-inden-1-yl]amino}propyl)-3H-[1,2,3] triazolo[4,5-b] pyridin-5-amine], for which the IC50 in assay [1] (read-out: APF Assay IC50 value) was 0.101 to 0.999 µM; in assay [2] (setting [4]) it was 1 to 10 µM.

In assay [2] (setting [3]), `COc1cccc(C(Cc2ccccc2)c2cc(N)nc3[nH]nnc23)c1` (centres unmarked) [Example 34, 7-(1-(3-methoxyphenyl)-2-phenylethyl)-3H-[1,2,3]triazolo[4,5-b]pyridin-5-amine] had an IC50 of 0.101 to 0.999 µM. Turning to `Nc1cc([C@H](CCNC23CCC(c4ccccc4)(CC2)C(O)C3)c2ccccc2)c2nn[nH]c2n1` (stereo partly drawn) [Example 181, 4-{[(3R)-3-{5-amino-3H-[1,2,3]triazolo [4,5-b]pyridin-7-yl}-3-phenylpropyl]amino}-1-phenylbicyclo[2.2.2] octan-2-ol], in assay [2] (setting [4]), the half-inhibitory concentration (IC50) was 0.001 to 0.1 µM.

`NC(=O)CN(CC[C@H](c1ccccc1)c1cc(N)nc2[nH]nnc12)[C@H]1CC[C@H](c2ccccc2)CC1` [Example 189, 2-{[(3R)-3-{5-amino-3H-[1,2,3]triazolo [4,5-b]pyridin-7-yl}-3-phenylpropyl] [(trans)-4-phenylcyclohexyl]amino}acetamide]: the 50% inhibitory concentration (IC50) in assay [1] (read-out: APF Assay IC50 value) lay in the range of 0.001 to 0.1 µM. Regarding `CCC(c1ccccc1)c1cc(N)nc2[nH]nnc12` (centres unmarked) [Example 5, 7-(1-phenylpropyl)-3H-[1,2,3]triazolo [4,5-b]pyridin-5-amine], the half-maximal inhibitory concentration (IC50) in assay [2] (setting [4]) lay within 0.101 to 0.999 µM. `CC1CC(NCCC(c2ccccc2)c2cc(N)nc3[nH]nnc23)CCN1c1ccccc1` (centres unmarked) [Example 131, N-(3-{5-amino-3H-[1,2,3]triazolo[4,5-b]pyridin-7-yl}-3-phenylpropyl)-2-methyl-1-phenylpiperidin-4-amine]: the IC50 in assay [1] (read-out: APF Assay IC50 value) was in the range of 0.001 to 0.1 µM. Consider `Cc1cccc(C(Cc2ccccc2)c2cc(N)nc3[nH]nnc23)c1` (centres unmarked) [Example 36, 7-[1-(3-methylphenyl)-2-phenylethyl]-3H-[1,2,3]triazolo [4,5-b]pyridin-5-amine], for which the half-maximal inhibitory concentration (IC50) in assay [2] (setting [4]) lay within 0.101 to 0.999 µM.

Regarding `Nc1cc(C(Cc2cccc(Cl)c2)c2ccccc2)c2nn[nH]c2n1` (centres unmarked) [Example 32, 7-[2-(3-chlorophenyl)-1-phenylethyl]-3H-[1,2,3]triazolo [4,5-b]pyridin-5-amine], the IC50 in assay [2] (setting [4]) lay within 0.101 to 0.999 µM. On the same count and under the same terms, for `CC(c1ccccc1)c1cc(N)nc2[nH]nnc12` (racemic) [Example 1, 7-(1-phenylethyl)-3H-[1,2,3]triazolo[4,5-b]pyridin-5-amine] the value was 0.001 to 0.1 µM; for `Nc1cc(C(CCNC2CCC(c3ccc(Cl)c(Cl)c3)c3ccccc32)c2ccccc2)c2nn[nH]c2n1` (centres unmarked) [Example 122, 7-(3-{[4-(3,4-dichlorophenyl)-1,2,3,4-tetrahydronaphthalen-1-yl]amino}-1-phenylpropyl)-3H-[1,2,3]triazolo[4,5-b]pyridin-5-amine], 0.001 to 0.1 µM; for `Nc1cc(C(Cc2ccccc2Cl)c2ccccc2)c2nn[nH]c2n1` (centres unmarked) [Example 31, 7-[2-(2-chlorophenyl)-1-phenylethyl]-3H-[1,2,3]triazolo [4,5-b]pyridin-5-amine], 0.101 to 0.999 µM.

As for `CC(C)CC(c1ccccc1)c1cc(N)nc2[nH]nnc12` (centres unmarked) [Example 4, 7-(3-methyl-1-phenylbutyl)-3H-[1,2,3]triazolo[4,5-b]pyridin-5-amine], the IC50 in assay [2] (setting [4]) is 0.101 to 0.999 µM. On to `CCCC(c1ccccc1)c1cc(N)nc2[nH]nnc12` (centres unmarked) [Example 3, 7-(1-phenylbutyl)-3H-[1,2,3]triazolo [4,5-b]pyridin-5-amine], for which, in assay [2] (setting [4]), the 50% inhibitory concentration (IC50) lay within 0.001 to 0.1 µM.

For `Nc1cc(C(Cc2ccc(CO)cc2)c2ccccc2)c2nn[nH]c2n1` (centres unmarked) [Example 224, (4-(2-(5-amino-3H-[1,2,3]triazolo[4,5-b]pyridin-7-yl)-2-phenylethyl)phenyl)methanol], the half-inhibitory concentration (IC50) in assay [2] (setting [4]) fell in the range of 0.001 to 0.1 µM. As for `COC(=O)c1cccc(C(CCN[C@H]2CC[C@H](c3ccccc3)CC2)c2cc(N)nc3[nH]nnc23)c1` (stereo partly drawn) [Example 163, methyl 3-(1-{5-amino-3H-[1,2,3]triazolo [4,5-b]pyridin-7-yl}-3-{[(trans)-4-phenylcyclohexyl]amino}propyl) benzoate], in assay [1] (read-out: APF Assay IC50 value), the half-inhibitory concentration (IC50) fell in the range of 0.001 to 0.1 µM.

As for `Nc1cc(C(Cc2ccc(Cl)cc2)c2ccccc2)c2nn[nH]c2n1` (centres unmarked) [Example 33, 7-[2-(4-chlorophenyl)-1-phenylethyl]-3H-[1,2,3]triazolo [4,5-b]pyridin-5-amine], the 50% inhibitory concentration (IC50) in assay [2] (setting [4]) lay within 0.101 to 0.999 µM. On the same count and under the same terms, next, `Nc1cc(C(CCC2CCCCC2)c2ccccc2)c2nn[nH]c2n1` (centres unmarked) [Example 6, 7-(3-cyclohexyl-1-phenylpropyl)-3H-[1,2,3]triazolo[4,5-b]pyridin-5-amine]: 0.101 to 0.999 µM; `Nc1cc(C(CCO)c2ccccc2)c2nn[nH]c2n1` (centres unmarked) [Example 174, 3-{5-amino-3H-[1,2,3]triazolo [4,5-b]pyridin-7-yl}-3-phenylpropan-1-ol]: 0.101 to 0.999 µM. Turning to `Nc1cc(C(Cc2ccccc2)c2cccc(Cl)c2)c2nn[nH]c2n1` (centres unmarked) [Example 35, 7-[1-(3-chlorophenyl)-2-phenylethyl]-3H-[1,2,3]triazolo [4,5-b]pyridin-5-amine], the IC50 in assay [2] (setting [4]) was in the range of 0.101 to 0.999 µM. Still for that read-out and setting: next, `Nc1cc(C(CCNC2CCCCC2)c2ccccc2)c2nn[nH]c2n1` (centres unmarked) [Example 19, 7-[3-(cyclohexylamino)-1-phenylpropyl]-3H-[1,2,3]triazolo[4,5-b] pyridin-5-amine]: 0.101 to 0.999 µM; `CC(NCCC(c1ccccc1)c1cc(N)nc2[nH]nnc12)c1ccccc1` (single isomer, unassigned) [Example 13, 7-(1-phenyl-3-((1-phenylethyl)amino)propyl)-3H-[1,2,3]triazolo[4,5-b]pyridin-5-amine]: 0.101 to 0.999 µM. With `Nc1cc(C(CCOC2CCc3ccccc32)c2ccccc2)c2nn[nH]c2n1` (single isomer, unassigned) [Example 232, 7-(3-((2,3-dihydro-1H-inden-1-yl)oxy)-1-phenylpropyl)-3H-[1,2,3]triazolo[4,5-b]pyridin-5-amine], the concentration for half-maximal inhibition (IC50) in assay [2] (setting [4]) lay within 0.101 to 0.999 µM.
